In the assay the target is HLA A*3001 (Homo sapiens, UniProt P04439, D140H/D185E/E176W/F33S/G80R/H175R/K168Q/R138E/R41S). Description: biochemical. The class given is binding.

Where a SMILES comes first, the peptide text is derived from it.

Sequence of HLA A*3001 (P04439 25-365 limits assumed, stated change not applied): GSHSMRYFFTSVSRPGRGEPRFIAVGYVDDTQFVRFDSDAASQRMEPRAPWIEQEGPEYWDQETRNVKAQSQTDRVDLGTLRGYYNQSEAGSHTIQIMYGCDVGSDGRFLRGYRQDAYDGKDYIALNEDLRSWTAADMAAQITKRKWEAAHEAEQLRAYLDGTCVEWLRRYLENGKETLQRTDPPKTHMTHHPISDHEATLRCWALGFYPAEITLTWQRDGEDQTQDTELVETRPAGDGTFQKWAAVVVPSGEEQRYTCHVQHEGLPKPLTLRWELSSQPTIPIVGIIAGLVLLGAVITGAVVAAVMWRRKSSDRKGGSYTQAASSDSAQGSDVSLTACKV

As to `CC[C@H](C)[C@H](NC(=O)[C@H](Cc1ccccc1)NC(=O)[C@@H]1CCCN1C(=O)[C@H](C)NC(=O)[C@H](CS)NC(=O)[C@H](Cc1c[nH]c2ccccc12)NC(=O)[C@H](CCCCN)NC(=O)[C@@H](NC(=O)[C@@H](N)CCSC)[C@@H](C)O)C(=O)O` [3102.0130] (H-MTKWCAPFI-OH), the IC50 (in general, the concentration needed to halve the response being measured) was found to be 0.17 nM. `CC(C)C[C@H](NC(=O)[C@H](Cc1c[nH]cn1)NC(=O)[C@H](CC(N)=O)NC(=O)[C@H](CS)NC(=O)[C@H](CCCNC(=N)N)NC(=O)[C@H](C)NC(=O)[C@@H](N)CCCCN)C(=O)N[C@H](C(=O)N[C@@H](CCCCN)C(=O)O)[C@@H](C)O` [3102.0131] (H-KARCNHLTK-OH) yielded an IC50 of 0.21 nM. With `CC[C@H](C)[C@H](NC(=O)[C@@H](NC(=O)[C@H](Cc1ccccc1)NC(=O)[C@H](CCSC)NC(=O)[C@@H](NC(=O)[C@@H](N)CCCCN)C(C)C)C(C)C)C(=O)N[C@@H](CCCNC(=N)N)C(=O)N[C@@H](Cc1ccccc1)C(=O)N[C@@H](CCCCN)C(=O)O` [3102.0133] (H-KVMFVIRFK-OH) the figure was 0.6 nM; with `CSCC[C@H](NC(=O)[C@H](Cc1c[nH]cn1)NC(=O)[C@H](CC(N)=O)NC(=O)[C@H](CCCNC(=N)N)NC(=O)[C@H](Cc1ccccc1)NC(=O)[C@@H](N)CCCNC(=N)N)C(=O)N[C@@H](CS)C(=O)N[C@@H](CC(C)C)C(=O)N[C@H](C(=O)O)C(C)C` [3102.0134] (H-RFRNHMCLV-OH), 31 nM; with `CC(C)[C@H](NC(=O)[C@@H](N)CO)C(=O)N[C@@H](CCCCN)C(=O)N[C@@H](CS)C(=O)N[C@@H](CCC(N)=O)C(=O)N[C@@H](CO)C(=O)N1CCC[C@H]1C(=O)N1CCC[C@H]1C(=O)N[C@@H](CO)C(=O)O` [3102.0135] (H-SVKCQSPPS-OH), 17 nM. The figure for `CC[C@H](C)[C@H](NC(=O)[C@@H]1CCCN1C(=O)CNC(=O)[C@H](CCSC)NC(=O)[C@H](CCCCN)NC(=O)[C@H](CCC(N)=O)NC(=O)[C@@H](N)CCCCN)C(=O)N[C@@H](Cc1ccc(O)cc1)C(=O)N[C@@H](C)C(=O)O` [3102.0136] (H-KQKMGPIYA-OH) is 22 nM.

`CC[C@H](C)[C@H](NC(=O)[C@H](CCCCN)NC(=O)[C@H](CC(N)=O)NC(=O)[C@H](CC(N)=O)NC(=O)[C@H](CCCCN)NC(=O)[C@@H](NC(=O)[C@@H](N)CCSC)C(C)C)C(=O)N[C@@H](CCC(N)=O)C(=O)N[C@@H](CCCCN)C(=O)O` [3102.0137] (H-MVKNNKIQK-OH) showed an IC50 of 12 nM.

Consider `CC[C@H](C)[C@H](NC(=O)[C@H](Cc1ccccc1)NC(=O)[C@H](CCCCN)NC(=O)[C@H](Cc1ccc(O)cc1)NC(=O)[C@H](Cc1ccccc1)NC(=O)[C@H](C)NC(=O)[C@H](CCCCN)NC(=O)[C@@H](NC(=O)[C@@H](N)Cc1c[nH]cn1)C(C)C)C(=O)O` [3102.0138] (H-HVKAFYKFI-OH), for which half-maximal inhibition (IC50) required 0.35 nM. With `CC[C@H](C)[C@H](NC(=O)[C@H](C)NC(=O)[C@H](CCCNC(=N)N)NC(=O)[C@@H](NC(=O)[C@@H](N)CCCNC(=N)N)[C@@H](C)O)C(=O)N[C@@H](CC(N)=O)C(=O)N[C@@H](CCCCN)C(=O)N[C@@H](Cc1ccc(O)cc1)C(=O)N[C@@H](CO)C(=O)O` [3102.0141] (H-RTRAINKYS-OH) the figure was 13 nM; with `CC(C)[C@H](NC(=O)[C@H](Cc1ccc(O)cc1)NC(=O)[C@H](CO)NC(=O)[C@H](Cc1ccc(O)cc1)NC(=O)[C@@H](NC(=O)[C@@H]1CCCN1C(=O)[C@H](CCCCN)NC(=O)[C@H](Cc1ccc(O)cc1)NC(=O)[C@@H](N)CCCCN)C(C)C)C(=O)O` [3102.0143] (H-KYKPVYSYV-OH), 0.74 nM; with `CC(C)[C@H](NC(=O)[C@H](CCCCN)NC(=O)[C@H](Cc1ccccc1)NC(=O)[C@@H](NC(=O)[C@H](CC(=O)O)NC(=O)[C@H](Cc1ccc(O)cc1)NC(=O)[C@H](CCCNC(=N)N)NC(=O)[C@@H](NC(=O)[C@@H](N)CCCNC(=N)N)[C@@H](C)O)[C@@H](C)O)C(=O)O` [3102.0144] (H-RTRYDTFKV-OH), 0.2 nM. `CC(C)C[C@H](NC(=O)[C@H](Cc1ccccc1)NC(=O)[C@H](CO)NC(=O)[C@H](CCCCN)NC(=O)[C@H](CC(C)C)NC(=O)[C@H](CCC(N)=O)NC(=O)[C@H](CCCCN)NC(=O)[C@H](CO)NC(=O)[C@@H](N)CCCCN)C(=O)O` [3102.0146] (H-KSKQLKSFL-OH) returned an IC50 of 13 nM. The figure for `CC[C@H](C)[C@H](NC(=O)[C@H](Cc1ccc(O)cc1)NC(=O)[C@H](CC(C)C)NC(=O)[C@@H]1CCCN1C(=O)[C@H](CC(=O)O)NC(=O)[C@H](CCCNC(=N)N)NC(=O)[C@@H](NC(=O)[C@@H](N)CCSC)[C@@H](C)O)C(=O)N[C@@H](Cc1ccc(O)cc1)C(=O)O` [3102.0147] (H-MTRDPLYIY-OH) is 17 nM; for `C[C@H](N)C(=O)N[C@H](C(=O)N[C@@H](C)C(=O)N[C@@H](CCCNC(=N)N)C(=O)N[C@@H](CO)C(=O)N[C@@H](CO)C(=O)N1CCC[C@H]1C(=O)N[C@@H](CCC(=O)O)C(=O)N[C@@H](CCCCN)C(=O)O)[C@@H](C)O` [3102.0148] (H-ATARSSPEK-OH) it is 0.58 nM. With `CSCC[C@H](N)C(=O)N[C@H](C(=O)N[C@@H](CCCNC(=N)N)C(=O)N[C@@H](CC(C)C)C(=O)N1CCC[C@H]1C(=O)N[C@@H](Cc1ccc(O)cc1)C(=O)N[C@@H](CCCCN)C(=O)N[C@@H](CC(=O)O)C(=O)N[C@@H](C)C(=O)O)C(C)C` [3102.0149] (H-MVRLPYKDA-OH) the figure was 0.76 nM; with `CC[C@H](C)[C@H](NC(=O)[C@H](CC(N)=O)NC(=O)[C@@H](NC(=O)[C@H](CC(N)=O)NC(=O)[C@H](CCCCN)NC(=O)[C@H](CO)NC(=O)[C@@H](N)CCCCN)[C@@H](C)CC)C(=O)N[C@@H](CCC(=O)O)C(=O)N[C@H](C(=O)O)C(C)C` [3102.0150] (H-KSKNINIEV-OH), 0.32 nM; with `CC[C@H](C)[C@H](NC(=O)[C@H](CC(=O)O)NC(=O)[C@H](CC(C)C)NC(=O)[C@@H](NC(=O)[C@@H](N)CCCCN)[C@@H](C)O)C(=O)N[C@@H](CO)C(=O)N[C@@H](CO)C(=O)N[C@@H](Cc1ccccc1)C(=O)N[C@@H](Cc1ccc(O)cc1)C(=O)O` [3102.0151] (H-KTLDISSFY-OH), 23 nM.

As for `CC(C)[C@H](NC(=O)[C@H](CO)NC(=O)[C@@H](NC(=O)[C@H](Cc1ccc(O)cc1)NC(=O)[C@@H](NC(=O)[C@H](Cc1ccccc1)NC(=O)[C@H](CCCCN)NC(=O)[C@H](CO)NC(=O)[C@H](C)N)C(C)C)C(C)C)C(=O)O` [3102.0152] (H-ASKFVYVSV-OH), the IC50 came out at 3.1 nM. As for `CC[C@H](C)[C@H](NC(=O)[C@H](CCCCN)NC(=O)[C@H](CO)NC(=O)[C@@H](NC(=O)[C@@H](NC(=O)[C@H](CCCCN)NC(=O)[C@H](CCCNC(=N)N)NC(=O)[C@@H](NC(=O)[C@@H](N)CCCCN)C(C)C)[C@@H](C)CC)[C@@H](C)CC)C(=O)O` [3102.0153] (H-KVRKIISKI-OH), the IC50 amounted to 27 nM.

`CC(C)C[C@H](NC(=O)[C@H](Cc1ccc(O)cc1)NC(=O)[C@H](CCCNC(=N)N)NC(=O)[C@@H](NC(=O)[C@@H](N)CCCNC(=N)N)C(C)C)C(=O)N[C@H](C(=O)N[C@@H](CCCNC(=N)N)C(=O)N[C@@H](CC(N)=O)C(=O)N[C@@H](Cc1ccc(O)cc1)C(=O)O)[C@@H](C)O` [3102.0155] (H-RVRYLTRNY-OH) gave an IC50 of 5.6 nM. Compound `CC(C)C[C@H](NC(=O)[C@H](Cc1ccccc1)NC(=O)[C@@H](NC(=O)CNC(=O)[C@H](Cc1ccc(O)cc1)NC(=O)[C@H](CCCNC(=N)N)NC(=O)[C@H](Cc1ccc(O)cc1)NC(=O)[C@@H](N)CCCCN)[C@@H](C)O)C(=O)N[C@@H](Cc1ccc(O)cc1)C(=O)O` [3102.0156] (H-KYRYGTFLY-OH) showed an IC50 of 1.1 nM.

These data come from article PMC2248166, “Quantitative peptide binding motifs for 19 human and mouse MHC class I molecules derived using positional scanning combinatorial peptide libraries” (Immunome Research, 2008).
